Test results taken from DBAASP.
Values after ≈ are worked out from the molar mass of the structure shown.

Experiments:
Assay in all cases: ≥ marks a high value that may be exact or a test limit, other limits are often not marked, values filed in µg/mL are converted to µM
[1] = system: Staphylococcus aureus ATCC 9144
[2] = system: Pseudomonas aeruginosa ATCC 27853
[3] = system: Escherichia coli ATCC 25922
[4] = system: Corynebacterium glutamicum ATCC 13032
[5] = system: Candida albicans ATCC 10231
Aureobasidium pullulans = system: Aureobasidium pullulans
[6] = system: Pseudomonas aeruginosa PAO1
Escherichia coli C600 = system: Escherichia coli C600
[7] = system: Staphylococcus aureus 209P
[8] = system: Bacillus subtilis KCTC 1021
Serratia marcescens = system: Serratia marcescens
[9] = system: Micrococcus luteus ATCC 4698
[10] = system: Shigella dysenteriae ATCC 9752
[11] = system: Salmonella enterica subsp. enterica serovar Typhimurium ATCC 14028
[12] = system: Pseudomonas aeruginosa ATCC 9027
[13] = system: Klebsiella pneumoniae ATCC 10031
Escherichia coli = system: Escherichia coli
[14] = system: Streptococcus pyogenes M1T1 5448
Escherichia coli BL21 = system: Escherichia coli BL21
[15] = system: Staphylococcus aureus USA 300
Escherichia coli K99 = system: Escherichia coli K99
[16] = system: Salmonella typhimurium ATCC 7731
[17] = system: Listeria monocytogenes CGMCC 1.1075
[18] = system: Salmonella enterica subsp. enterica serovar Pullorum ATCC 7913
Escherichia coli UB1005 = system: Escherichia coli UB1005
[19] = system: Enterococcus faecalis ATCC 29212
[20] = system: Staphylococcus aureus ATCC 25923
[21] = system: Bacillus subtilis CMCC 63501
Escherichia coli 078 = system: Escherichia coli 078
[22] = system: Staphylococcus aureus ATCC 43300
[23] = system: Bacillus cereus CGMCC 1.932
Escherichia coli K88 = system: Escherichia coli K88
[24] = system: Staphylococcus epidermidis ATCC 12228
Acinetobacter baumannii = system: Acinetobacter baumannii

SMILES: CC(C)[C@H](NC(=O)[C@H](CCCCN)NC(=O)[C@H](C)NC(=O)[C@@H](NC(=O)[C@@H](NC(=O)[C@H](CCCN=C(N)N)NC(=O)[C@H](CCCN=C(N)N)NC(=O)[C@H](Cc1c[nH]c2ccccc12)NC(=O)[C@H](C)NC(=O)CN)[C@@H](C)O)C(C)C)C(=O)N[C@@H](CCCN=C(N)N)C(=O)N[C@@H](CCCCN)C(N)=O [GAWRRTVAKVRK]
- MIC [1]: ≥ 100 µM
- MIC [2]: 200 µM (≈ 285 µg/mL)
- MIC [3]: 50 µM (≈ 71.3 µg/mL)
- MIC [4]: 3.1 µM (≈ 4.42 µg/mL)
- MIC [5]: 50 µM (≈ 71.3 µg/mL)
- MIC (Aureobasidium pullulans): ≥ 50 µM

SMILES: CC[C@H](C)[C@@H]1NC(=O)CNC(=O)[C@H](CCCN=C(N)N)NC(=O)[C@H](CCCN=C(N)N)NC(=O)[C@@H]2CSSC[C@H](NC1=O)C(=O)N[C@@H](Cc1ccc(O)cc1)C(=O)N[C@@H](CCCN=C(N)N)C(=O)N[C@@H](CCCN=C(N)N)C(=O)N[C@H](C(=O)N[C@@H](CCCN=C(N)N)C(=O)O)CSSC[C@H](NC(=O)[C@H](Cc1c[nH]c3ccccc13)NC(=O)[C@@H](N)CCCCN)C(=O)N[C@@H](Cc1ccccc1)C(=O)N[C@@H](CCCN=C(N)N)C(=O)N[C@@H](C(C)C)C(=O)N2 [KWCFRVCRRGICYRRCR]
- MIC [6]: 6.25 µM (≈ 14.1 µg/mL)
- MIC (Escherichia coli C600): 1.56 µM (≈ 3.52 µg/mL)
- MIC [7]: 3.13 µM (≈ 7.07 µg/mL)

SMILES: CC[C@H](C)[C@H](NC(=O)CN)C(=O)N[C@@H](CC(C)C)C(=O)N[C@@H](CC(=O)O)C(=O)N[C@H](C(=O)N[C@@H](CC(C)C)C(=O)N[C@@H](CCCCN)C(=O)N[C@@H](CCC(N)=O)C(=O)N[C@@H](Cc1ccccc1)C(=O)N[C@@H](C)C(=O)N[C@@H](CCCCN)C(=O)NCC(=O)N[C@H](C(=O)NCC(=O)N[C@@H](CCCCN)C(=O)N[C@@H](CC(=O)O)C(=O)N[C@@H](CC(C)C)C(=O)N[C@H](C(=O)N[C@@H](CCCCN)C(=O)NCC(=O)N[C@@H](C)C(=O)N[C@@H](C)C(=O)N[C@@H](CCC(N)=O)C(=O)O)C(C)C)C(C)C)[C@@H](C)O [GILDTLKQFAKGVGKDLVKGAAQ]
- MIC [8]: ≥ 84.8 µM
- MIC (Serratia marcescens): ≥ 84.8 µM
- MIC [9]: ≥ 84.8 µM
- MIC [10]: ≥ 84.8 µM
- MIC [11]: > 84.8 µM
- MIC [12]: > 84.8 µM
- MIC [13]: ≥ 84.8 µM
- MIC (Escherichia coli): > 84.8 µM

SMILES: CC[C@H](C)[C@H](NC(=O)[C@H](CCCN=C(N)N)NC(=O)CNC(=O)[C@@H](NC(=O)[C@H](CCCCN)NC(=O)[C@H](CCCN=C(N)N)NC(=O)[C@@H](NC(=O)[C@H](Cc1ccc(O)cc1)NC(=O)[C@H](CCCN=C(N)N)NC(=O)[C@H](CCCN=C(N)N)NC(=O)[C@H](CC(C)C)NC(=O)[C@H](CCC(=O)O)NC(=O)[C@H](CCCCN)NC(=O)[C@H](C)NC(=O)[C@@H](NC(=O)[C@H](CCCN=C(N)N)NC(=O)[C@H](CC(N)=O)NC(=O)[C@@H](NC(=O)CNC(=O)[C@H](C)N)[C@@H](C)O)[C@@H](C)CC)[C@@H](C)CC)C(C)C)C(=O)N[C@@H](C)C(=O)N[C@@H](CCCN=C(N)N)C(=O)N[C@@H](CCCCN)C(=O)N[C@@H](Cc1c[nH]c2ccccc12)C(=O)N[C@@H](Cc1c[nH]c2ccccc12)C(=O)O [AGTNRIAKELRRYIRKVGRIARKWW]
- MIC [6]: 8 µM (≈ 24.8 µg/mL)
- MIC [14]: 1 µM (≈ 3.1 µg/mL)
- MIC (Escherichia coli BL21): 0.25 µM (≈ 0.775 µg/mL)

SMILES: CC[C@H](C)[C@H](NC(=O)[C@H](CCCN=C(N)N)NC(=O)CNC(=O)[C@@H](NC(=O)[C@H](CCCCN)NC(=O)[C@H](CCCN=C(N)N)NC(=O)[C@@H](NC(=O)[C@H](Cc1ccc(O)cc1)NC(=O)[C@H](CCCN=C(N)N)NC(=O)[C@H](CCCN=C(N)N)NC(=O)[C@H](CC(C)C)NC(=O)[C@H](CCC(=O)O)NC(=O)[C@H](CCCCN)NC(=O)[C@H](C)NC(=O)[C@@H](NC(=O)[C@H](CCCN=C(N)N)NC(=O)[C@H](CC(N)=O)NC(=O)[C@@H](NC(=O)CNC(=O)[C@@H](N)Cc1c[nH]c2ccccc12)[C@@H](C)O)[C@@H](C)CC)[C@@H](C)CC)C(C)C)C(=O)N[C@@H](C)C(=O)N[C@@H](CCCN=C(N)N)C(=O)N[C@@H](CCCCN)C(=O)N[C@@H](C)C(=O)N[C@@H](Cc1c[nH]c2ccccc12)C(=O)O [WGTNRIAKELRRYIRKVGRIARKAW]
- MIC [6]: 8 µM (≈ 24.8 µg/mL)
- MIC [14]: 0.25 µM (≈ 0.775 µg/mL)
- MIC [15]: 16 µM (≈ 49.6 µg/mL)
- MIC (Escherichia coli BL21): 1 µM (≈ 3.1 µg/mL)

SMILES: C[C@H](NC(=O)[C@H](CCCN=C(N)N)NC(=O)[C@H](Cc1c[nH]c2ccccc12)NC(=O)[C@H](CCCN=C(N)N)NC(=O)[C@H](Cc1c[nH]c2ccccc12)NC(=O)[C@H](Cc1c[nH]c2ccccc12)NC(=O)[C@H](Cc1c[nH]c2ccccc12)NC(=O)[C@H](CCCN=C(N)N)NC(=O)[C@H](Cc1c[nH]c2ccccc12)NC(=O)[C@H](CCCN=C(N)N)NC(=O)[C@@H](N)[C@@H](C)O)C(N)=O [TRWRWWWRWRA]
- MIC [6]: 16 µM (≈ 27.9 µg/mL)
- MIC (Escherichia coli K99): 2 µM (≈ 3.49 µg/mL)
- MIC [16]: 2 µM (≈ 3.49 µg/mL)
- MIC [17]: 1 µM (≈ 1.75 µg/mL)
- MIC [18]: 1 µM (≈ 1.75 µg/mL)
- MIC [2]: 2 µM (≈ 3.49 µg/mL)
- MIC (Escherichia coli UB1005): 1 µM (≈ 1.75 µg/mL)
- MIC [19]: 4 µM (≈ 6.98 µg/mL)
- MIC [11]: 1 µM (≈ 1.75 µg/mL)
- MIC [20]: 1 µM (≈ 1.75 µg/mL)
- MIC [21]: 16 µM (≈ 27.9 µg/mL)
- MIC (Escherichia coli 078): 2 µM (≈ 3.49 µg/mL)
- MIC [22]: 2 µM (≈ 3.49 µg/mL)
- MIC [23]: 8 µM (≈ 14 µg/mL)
- MIC (Escherichia coli K88): 2 µM (≈ 3.49 µg/mL)
- MIC [24]: 1 µM (≈ 1.75 µg/mL)
- MIC (Acinetobacter baumannii): 2 µM (≈ 3.49 µg/mL)

SMILES: C[C@H](NC(=O)[C@H](CCCN=C(N)N)NC(=O)[C@H](Cc1c[nH]c2ccccc12)NC(=O)[C@H](CCCN=C(N)N)NC(=O)[C@H](Cc1c[nH]c2ccccc12)NC(=O)[C@H](Cc1c[nH]c2ccccc12)NC(=O)[C@H](Cc1c[nH]c2ccccc12)NC(=O)[C@H](CCCN=C(N)N)NC(=O)[C@H](Cc1c[nH]c2ccccc12)NC(=O)[C@H](CCCN=C(N)N)NC(=O)[C@@H](N)CO)C(N)=O [SRWRWWWRWRA]
- MIC [6]: 4 µM (≈ 6.92 µg/mL)
- MIC (Escherichia coli K99): 1 µM (≈ 1.73 µg/mL)
- MIC [16]: 4 µM (≈ 6.92 µg/mL)
- MIC [17]: 2 µM (≈ 3.46 µg/mL)
- MIC [18]: 0.5 µM (≈ 0.866 µg/mL)
- MIC [2]: 2 µM (≈ 3.46 µg/mL)
- MIC (Escherichia coli UB1005): 1 µM (≈ 1.73 µg/mL)
- MIC [19]: 4 µM (≈ 6.92 µg/mL)
- MIC [11]: 2 µM (≈ 3.46 µg/mL)
- MIC [20]: 1 µM (≈ 1.73 µg/mL)
- MIC [21]: 8 µM (≈ 13.8 µg/mL)
- MIC (Escherichia coli 078): 2 µM (≈ 3.46 µg/mL)
- MIC [22]: 2 µM (≈ 3.46 µg/mL)
- MIC [23]: 4 µM (≈ 6.92 µg/mL)
- MIC (Escherichia coli K88): 4 µM (≈ 6.92 µg/mL)
- MIC [24]: 0.5 µM (≈ 0.866 µg/mL)
- MIC (Acinetobacter baumannii): 2 µM (≈ 3.46 µg/mL)

SMILES: CC(C)[C@H](NC(=O)[C@@H](NC(=O)[C@H](CCCN=C(N)N)NC(=O)[C@H](CCCN=C(N)N)NC(=O)[C@H](Cc1c[nH]c2ccccc12)NC(=O)[C@H](Cc1c[nH]c2ccccc12)NC(=O)CN)[C@@H](C)O)C(=O)N[C@@H](C)C(=O)N[C@@H](CCCCN)C(=O)N[C@@H](C)C(=O)N[C@@H](CCCN=C(N)N)C(=O)N[C@@H](CCCCN)C(N)=O [GWWRRTVAKARK]
- MIC [1]: ≥ 100 µM
- MIC [2]: 6.3 µM (≈ 9.54 µg/mL)
- MIC [3]: 12.5 µM (≈ 18.9 µg/mL)
- MIC [4]: 1.6 µM (≈ 2.42 µg/mL)
- MIC [5]: 25 µM (≈ 37.8 µg/mL)
- MIC (Aureobasidium pullulans): ≥ 50 µM
